The text below walks through data of US10041042B2, “Methods for production and use of substance-loaded erythrocytes (S-IEs) for observation and treatment of microvascular hemodynamics” (Novadaq Technologies ULC, priority 2008, dated 2018).

Assay type in all cases: physicochemical
Data set [1] is described as follows: Infrared fluorescence image of thick and thin layers of ICG with and without Ag colloid. Conditions: thick (1 cm) layers, 0.250 mg/mL ICG in HAS with or without 4.684 mg/mL Ag colloid, 805 nm. As for the experimental part: FIG. 7 is an infrared fluorescence image comparing the fluorescence enhancement effect of silver colloid in 0.05 mg/mL ICG solutions; samples in the left-hand side contain no colloid, while those in the right-hand side contain colloid; samples at the top are in 1-cm thick tubes, while those at the bottom are 100 microns thick;
FIG. 8 is an infrared fluorescence image of the samples of FIG. 7 showing reflection of the 805-nm wavelength light used to stimulate fluorescence; no barrier filter was placed in front of the CCD camera in this case;
The disparity between fluorescence enhancement reported in the experiments made using glass surfaces on which the dye/colloid conjugates were bound with amino groups (30-fold) and those observed in the in vivo angiograms (2- to 3-fold) apparently was due to the fact that the colloid fluorescence-enhancement effect is manifest in very thin layers of the dye/suspension and suppressed in thick ones. In this figure, the thick samples are at the top, and the thin ones at the bottom; 0.250 mg/mL ICG in HAS is on the left, and 0.250 mg/mL ICG in HAS with 4.684 mg/mL Ag colloid on the right. The array of samples was uniformly illuminated with 805-nm wavelength light, and the ICG fluorescence image was captured. […]

Data set [2] can be described thus: Optimum ICG concentration for fluorescence (concentration quenching). An excerpt:
(1) Although many fluorescent dyes, such as ICG dye, do bind to the erythrocyte outer cell membrane, binding is weak and non-covalent, and regardless of the dye concentration and conjugation time, the maximum fluorescence brightness that can be achieved is considerably less than optimum (see FIG. 1). […] (2) Exposure to fluorescence excitation energy for diagnostic purposes must not exceed the safe maximum permissible exposure level for the sensory retina. Since ICG dye is a fairly weak emitter of fluorescence, care must be taken to ensure that the amount of ICG present post-loading is optimal, resulting in maximum fluorescence intensity possible at a given safe excitation energy level. […] Moreover, since ICG is subject to concentration fluorescence quenching—even when inside erythrocytes—the amount of loaded dye must be controlled: too much or too little will not produce the maximum fluorescence. […] Achieving optimal dye concentration is accomplished by controlling the amount of dye in the solution during dialysis once the pores in the cell membranes open; experimentation has determined the optimum amount to be approximately 1.0 μmol/mL dialysed cell-solution (see FIG. 2). […] This also has the advantage of preventing plasma dye-staining and the associated reduction of contrast between cell fluorescence and background brightness once the cells are re-injected. […]

Data set [3] in a line: Near-infrared fluorescence micrographs (40×) of ICG-loaded vs ICG-stained erythrocytes: cell brightness. Conditions: FIG. 1C, plasma exposed 20 min to stained erythrocytes. The procedure: FIGS. 1A-1D are near-infrared fluorescence micrographs at 40× magnification of erythrocytes, comparing the brightness of cells “stained” with ICG (A—stained in 1 mM ICG solution for 30 min. and B—stained in 2 mM ICG solution for 60 min. to cells into which ICG has been loaded through pores in their membranes; C—stained plasma resulting from exposure for 20 min. to the stained erythrocytes from A; D—dialysed in 1 mM ICG solution for 30 min.);
(1) Although many fluorescent dyes, such as ICG dye, do bind to the erythrocyte outer cell membrane, binding is weak and non-covalent, and regardless of the dye concentration and conjugation time, the maximum fluorescence brightness that can be achieved is considerably less than optimum (see FIG. 1). […] (2) Exposure to fluorescence excitation energy for diagnostic purposes must not exceed the safe maximum permissible exposure level for the sensory retina. Since ICG dye is a fairly weak emitter of fluorescence, care must be taken to ensure that the amount of ICG present post-loading is optimal, resulting in maximum fluorescence intensity possible at a given safe excitation energy level. […] Moreover, since ICG is subject to concentration fluorescence quenching—even when inside erythrocytes—the amount of loaded dye must be controlled: too much or too little will not produce the maximum fluorescence. […]

Regarding `CC1(C)C(/C=C/C=C/C=C/C=C2\N(CCCCS(=O)(=O)O)c3ccc4ccccc4c3C2(C)C)=[N+](CCCCS(=O)(=O)[O-])c2ccc3ccccc3c21` [ICG, indocyanine green], in data set [1], the “fluorescence brightness, thick samples” value is listed as “significantly brighter”. For the same molecule, the “optimum concentration of dye molecules in the loaded cells; above that level fluorescence quenching occurs” value in data set [2] (ICG inserted into S-IEs) is recorded as “about 0.03 mg/mL”. In addition, the “optimum amount of dye in the solution during dialysis” value in data set [2] (for maximum fluorescence of loaded erythrocytes) is “approximately 1.0 μmol/mL dialysed cell-solution”. In addition, the “affinity of ICG dye molecules: plasma proteins vs erythrocyte outer membrane” value in data set [3] is reported as “greater for plasma proteins than for the erythrocyte outer membrane”.
